Holding throughout (format): cell-based, human
Series [1] concerns HaCaT keratinocytes. Briefly: MTT assay of cell viability/proliferation after UV-B damage, epidermal cells. As for the experimental part:
(§1) Samples obtained in Examples 1 and 2 were measured in regards to the effect in recovering the skin damaged from UV-B exposure. In this experiment, HaCaT keratinocytes and HS68 fibroblasts were used as epidermal and dermal cells, respectively. In order to evaluate the possible efficacy of each sample in preventing or improving the UV-induced damage of skin cells, the cells were seeded into a 96-well microplate at a density of 1.0×10^4 cells/well and stabilized for 24 hours. Next, the culture medium was exchanged to a new one supplemented with the sample, and the cells were incubated for 24 hours. For UV-B irradiation, the culture medium was removed, washed with PBS, and exposed to UV-B radiation at 15 mJ/cm^2. After an incubation of 24 hours in a culture medium supplemented with the sample, the cells were subjected to an MTT assay to measure cell viability. The MTT assay measures the reduction of a tetrazolium component (MTT) into a formazan product by the mitochondria of viable cells. More specifically, 50 μl of a 5 mg/ml MTT solution was added to the cells, and after an incubation of 4 hours, the culture solution was completely removed and cells were dissolved in DMSO. The absorbance of the DMSO solution in the microplate was quantified by spectrophotometry at 540 nm.
On the technique in general: Tetrazolium assays rely on reduction of a dye to a coloured formazan, in cell work by metabolically active cells.

The test system of series [2] is HS68 fibroblasts. Put plainly: MTT assay of cell viability/proliferation after UV-B damage, dermal cells. As for the experimental part: as §1
Series [3] concerns MMP-1 secretion in epidermal HaCat keratinocytes. Put plainly: Quantitative analysis of MMP-1 secretion (ELISA), epidermal cells. Conditions: epidermal cells damaged by UV-B radiation of 15 mJ/cm2. As for the experimental part:
(§2) Samples obtained in Examples 1 and 2 were measured in regards to the inhibitory effect against the secretion of MMP-1 in epidermal HaCat keratinocytes and dermal Hs68 fibroblasts. In order to evaluate the effect of each sample in reducing MMP-1, the cells were seeded into a 24-well microplate at a density of 1.0×10^5 cells/well and stabilized for 24 hours. Next, the culture medium was exchanged to a new one supplemented with the sample, and the cells were incubated for 24 hours. For UV-B irradiation, the culture medium was removed, washed with PBS, and exposed to UV-B radiation at 15 mJ/cm^2. After an incubation of 48 hours in a culture medium supplemented with the sample, the resultant supernatant was measured in regards to the degree of secretion of MMP-1 by using an MMP-1 Human ELISA kit (ab100603, abcam, US).
On the technique in general: ELISA stands for enzyme-linked immunosorbent assay.

Series [4] relates to MMP-1 secretion in dermal Hs68 fibroblasts. Put plainly: Quantitative analysis of MMP-1 secretion (ELISA), dermal cells. As for the experimental part:
as §2

The subject of series [5] is procollagen type 1 secretion in dermal Hs68 fibroblasts. Briefly: Analysis of procollagen type-1 content (PIP EIA). As for the experimental part: Samples obtained in Examples 1 or 2 were measured in regards to the effect of increasing procollagen type 1 in dermal Hs68 fibroblasts. In order to evaluate the effect of each sample in increasing secretion of procollagen type 1, the cells were seeded into a 24-well microplate at a density of 1.0×10^5 cells/well and stabilized for 24 hours. Next, the culture medium was exchanged to a new one supplemented with the sample, and the cells were incubated for 24 hours. For UV-B irradiation, the culture medium was removed, washed with PBS, and exposed to UV-B radiation at 15 mJ/cm^2. After an incubation of 48 hours in a culture medium supplemented with the sample, the resultant supernatant was measured in regards to the degree of secretion of procollagen type 1 by using a Procollagen type 1 C-peptide (PIP) EIA kit (Mk101, Takara, Japan).

Series [6] has as its system hyaluronic acid secretion in epidermal HaCaT keratinocytes. Put plainly: Analysis of hyaluronic acid content (ELISA), epidermal cells. As for the experimental part: (§3) Samples obtained in Examples 1 and 2 were measured in regards to the effect of increasing hyaluronic acid in epidermal HaCaT keratinocytes and dermal Hs68 fibroblasts. In order to evaluate the effect of each sample in increasing hyaluronic acid, the cells were seeded into a 24-well microplate at a density of 1.0×10^5 cells/well and stabilized for 24 hours. Next, the culture medium was exchanged to a new one supplemented with the sample, and the cells were incubated for 24 hours. For UV-B irradiation, the culture medium was removed, washed with PBS, and exposed to UV-B radiation at 15 mJ/cm^2. After an incubation of 24 hours in a culture medium supplemented with the sample, the resultant supernatant was measured in regards to the degree of secretion of hyaluronic acid by using a TECOR Hyaluronic Acid PLUS ELISA kit (TE 1018-2, TECO Medical Group, US).

The subject of series [7] is hyaluronic acid secretion in dermal Hs68 fibroblasts. Put plainly: Analysis of hyaluronic acid content (ELISA), dermal cells. As for the experimental part: as §3
Where [8] appears, read: 1 μM hydrangenol, epidermal cells, UV-B 15 mJ/cm2.
The mark [9] stands for this setting: epidermal cells damaged by UV-B radiation of 15 mJ/cm2.
Setting [10] is: 1 μM hydrangenol, dermal cells, UV-B 15 mJ/cm2.
[11] abbreviates: dermal cells damaged by UV-B radiation of 15 mJ/cm2.

For the molecule `O=C1OC(c2ccc(O)cc2)Cc2cccc(O)c21` (stereo not drawn) [hydrangenol, 8-hydroxy-3-(4-hydroxyphenyl)-3,4-dihydroisochromen-1-one], the “cell proliferation effect compared with 10 μM EGCG” value in series [1] (setting [8]) and in series [2] (setting [10]) was “equivalent to 10 μM EGCG” throughout. Also, the cell proliferation entry in series [1] (setting [9]) and in series [2] (setting [11]) was “effective in promoting cell proliferation” throughout. Besides, the cytotoxicity entry in series [1] (setting [9]) and in series [2] (setting [11]) was “non-cytotoxic” throughout. The “production of MMP-1” value in series [3] and in series [4] (setting [11]) was “inhibited the production of MMP-1 in a concentration-dependent manner” throughout. Besides, the “inhibitory effect against the production of MMP-1 compared with EGCG” value in series [4] (dermal cells, same concentration as EGCG) was “far superior to the EGCG”. The “procollagen production effect compared with 10 μM EGCG” value in series [5] (setting [10]) was “equivalent to 10 μM EGCG”. The production of procollagen entry in series [5] (setting [11]) is listed as “increased the production of procollagen”. Moreover, the “effect in producing hyaluronic acid” value in series [6] (setting [8]) and in series [7] (setting [10]) was “excellent effect in producing hyaluronic acid” throughout. Besides, the “production of hyaluronic acid” value in series [6] (setting [9]) and in series [7] (setting [11]) was “increased the production of hyaluronic acid” throughout.

(Values after patent US12213960B2, “Method of preventing or improving UV-induced skin damage using hydroangenol as active ingredient” (COSMAXBIO CO., LTD., priority 2017, dated 2025).)
